Test results: US20090011424A1, “Cancer-suppressing agents” (Tokyo Medical and Dental University, priority 2005, published 2009)

What was measured:
SMS-KAN cells = experiment: soft agar colony formation after gene introduction; format: cell-based, human; conditions: 3 weeks, 500 μg/ml G418, vs empty vector
Protocol: (§1) Adherence to solid matter has been known as an example of a difference between properties of normal cells and those of cancer cells under culture conditions. In other words, it is necessary for normal cells to adhere to solid matter for cell proliferation (anchorage dependence). When normal cells are cultured in a soft agar medium (about 0.33%), they can not proliferate while floating in such medium. However, many cancer cells lack anchorage dependence so that they can proliferate in a soft agar medium. Since floating cancer cells cannot move in a soft agar medium, a single cancer cell is repeatedly divided such that the divided cells form a colony in 1 to 3 weeks time. Since there is a correlation between the ability of the cell to form a soft agar colony and the implanted tumor forming ability, the degree of such ability has been widely used as an index of malignancy (Shin, S. I., et al., Proc. Natl. Acad. Sci. USA 72, 4435, 1975). A full-length NR1I2 cDNA was inserted into pCMV-Tag3 vector (Stratagene) in which an myc peptide can be added to the amino terminal of an inserted gene (PCMV-Tag3-NR1I2). In addition, we already have discovered that a fusion product of a herpes-virus-derived VP16 protein and an NR1I2 protein has stronger transcriptional activity than that of an NR1I2 protein alone. […] Then, the number of colonies was counted (FIGS. 8A and 8B).

IMR32 cells = experiment: soft agar colony formation after gene introduction; format: cell-based, human; conditions: 3 weeks, 500 μg/ml G418, vs empty vector
Protocol: as §1

With “NR1I2 gene: human-derived gene, nuclear receptor subfamily 1, group I, member 2 (pregnane X receptor, PXR), nucleotide sequence SEQ ID NO: 1” the number of colonies (SMS-KAN cells) was “significantly reduced” and the number of colonies (IMR32 cells) was “significantly reduced”.
